According to paper PMC12810539, “EGFR-targeted gadolinium contrast agents for enhanced molecular magnetic resonance imaging of tumors” (The Journal of Biological Chemistry, 2025):
Each block holds one compound with its values, some of them ahead of it.

Legend:
[1] = system: SW480 cells; assay: Cellular Gd content after incubation (cell binding assay, ICP-MS); format: cell-based, human; settings: SW480, 50 μM Gd, 37 °C, mean ± SD (n = 6)
Protocol: (§1) The binding of EBP-Gd-DO3A and EBP-(Gd-DO3A)3 to the receptor on MDA-MB-231, A549, SGC-7901, SW480, and U138 MG cells was compared with that of Gadovist. The cells were seeded into 100 mm × 20 mm cell culture dishes at a density of approximately 1 × 10^6 cells per dish and incubated with EBP-Gd-DO3A, EBP-(Gd-DO3A)3 or Gadovist at a Gd concentration of 50 μM for 1 h or 12 h at 37 °C. After incubation, the cells were washed once with PBS followed by mild acidic buffer (50 mM glycine, 150 mM NaCl (pH 3.0)) at 4 °C for 5 min. Then, the cells were washed twice with PBS, and the cellular Gd content was measured by ICP-MS.
(§2) Cells were seeded into 100 mm×20 mm cell culture dishes at a density of approximately 1×10^6 cells per dish and incubated with EBP-Gd-DO3A, EBP-(Gd-DO3A)3 or Gadovist® at Gd concentrations of 50 μM at 37°C for the indicated time points. The Gd content in the cell lysates was quantified by ICP-MS. The values are presented as the mean ± SD (n = 6).

[2] = system: A549 cells; assay: as above; format: cell-based, human; settings: A549, 50 μM Gd, 37 °C, mean ± SD (n = 6)
Protocol: as §1, §2

[3] = system: MDA-MB-231 cells; assay: as above; format: cell-based, human; settings: MDA-MB-231 (EGFR-overexpressing), 50 μM Gd, 37 °C, mean ± SD (n = 6)
Protocol: as §1, §2

[4] = system: U138MG cells; assay: as above; format: cell-based, human; settings: U138MG (non-EGFR-overexpressing), 50 μM Gd, 37 °C, mean ± SD (n = 6)
Protocol: as §1, §2

[5] = system: SGC-7901 cells; assay: as above; format: cell-based, human; settings: SGC-7901, 50 μM Gd, 37 °C, mean ± SD (n = 6)
Protocol: as §1, §2

[6] = system: MDA-MB-231 and U138 MG tumor xenografts; assay: In vivo MR imaging of tumor xenografts; design: species or system SCID mice; settings: i.v. 50 μM Gd/kg, 7 T T1-weighted MRI, n = 6; conjugates in MDA-MB-231 xenografts; imaged up to 4 h
Protocol: The 6- to 8-week-old male non-obese diabetic (NOD)/severe-combined immunodeficient (SCID) mice were used to establish MDA-MB-231 (EGFR-overexpressing) and U138 MG (non-EGFR-overexpressing) xenograft models ([35]). The mice were obtained from the Experimental Animal Center of Tongji Medical College, Huazhong University of Science and Technology, and all the experimental procedures involving animals were further approved by the Animal Care and Use Committee of Huazhong University of Science and Technology. The mice were housed separately in polycarbonate cages and provided with food and water. Tumors were grown under the skin by s.c. injection of 1 × 10^6-3 × 10^6 cells. The mice were randomized into groups for the biodistribution assay and MR imaging in vivo when the xenografts reached 5 to 7 mm in diameter. […]
Tumor-bearing SCID mice were randomly grouped and scanned with a Bruker Biospec 7 T MRI scanner (Bruker Corp.) with a volume radio frequency (RF) coil. […] The parameters of the 2D T1-weighted gradient echo sequence were TR/TE = 151.2/1.9 ms, FOV = 3.0 cm, slice thickness = 1.2 mm, slice number = 20, average = 1, flip angle = 80°, and matrix = 128 × 128 ([28], [37]).The CNR were calculated with standard methods (CNR = [Stumor-Sbackground]/SDnoise).

[7] = system: U138 MG tumor xenografts; assay: In vivo biodistribution: tumor Gd content (ICP-MS); settings: SCID mice, mean ± SD
Protocol: The 6- to 8-week-old male non-obese diabetic (NOD)/severe-combined immunodeficient (SCID) mice were used to establish MDA-MB-231 (EGFR-overexpressing) and U138 MG (non-EGFR-overexpressing) xenograft models ([35]). The mice were obtained from the Experimental Animal Center of Tongji Medical College, Huazhong University of Science and Technology, and all the experimental procedures involving animals were further approved by the Animal Care and Use Committee of Huazhong University of Science and Technology. The mice were housed separately in polycarbonate cages and provided with food and water. Tumors were grown under the skin by s.c. injection of 1 × 10^6-3 × 10^6 cells. The mice were randomized into groups for the biodistribution assay and MR imaging in vivo when the xenografts reached 5 to 7 mm in diameter. All procedures were approved by the Institutional Animal Care and Use Committee of Huazhong University of Science and Technology (approval no.270193).
The tumor-bearing SCID mice were randomly divided into groups, with 6 animals in each group, an injected via the tail vein with 50 μM Gd/kg EBP-Gd-DO3A, EBP-(Gd-DO3A)3, or Gadovist. At the selected time points (0.25, 0.5, 1, 2, 4, 8, 24, and 48 h) after injection, blood was collected and centrifuged to separate the plasma. Then, organ and tissue samples, including the kidneys, liver, heart, and tumor, were collected and weighed. The tissue samples were liquefied for 1 week and then transferred into centrifuge tubes and centrifuged at 14,000 rpm for 5 min. The resulting supernatants were diluted tenfold with deionized water and centrifuged again under the same conditions. The Gd concentration in the samples was measured by ICP-MS ([36]).

Compound: CMYIEALDKYAC [EBP-(Gd-DO3A)3]
Concentration of cellular Gd ([1]; 1 h): 1.05 ± 0.09 μM/10^6 cells
Concentration of cellular Gd ([1]; 12 h): 2.65 ± 0.11 μM/10^6 cells
Concentration of cellular Gd ([2]; 1 h): 1.04 ± 0.06 μM/10^6 cells
Concentration of cellular Gd ([2]; 12 h): 2.66 ± 0.15 μM/10^6 cells
Concentration of cellular Gd ([3]; 1 h): 1.17 ± 0.12 μM/10^6 cells
Concentration of cellular Gd ([3]; 12 h): 2.79 ± 0.18 μM/10^6 cells
Concentration of cellular Gd ([4]; 1 h): 0.15 ± 0.04 μM/10^6 cells
Concentration of cellular Gd ([4]; 12 h): 0.74 ± 0.17 μM/10^6 cells
Concentration of cellular Gd ([5]; 1 h): 1.01± 0.08 μM/10^6 cells
Concentration of cellular Gd ([5]; 12 h): 2.31 ± 0.14 μM/10^6 cells

Gd content in the U138 MG tumors ([7]; 0.5 h after single i.v. 50 μM Gd/kg): 8.70 ± 1.24 nM/g tissue
Gd content in the U138 MG tumors ([7]; 2 h after single i.v. 50 μM Gd/kg): 5.76 ± 0.45 nM/g tissue
Gd content in the U138 MG tumors ([7]; 24 h after single i.v. 50 μM Gd/kg): 0.90 ± 0.23 nM/g tissue
Compound: O=C([O-])CN1CCN(CC(=O)[O-])CCN([C@H](CO)[C@H](O)CO)CCN(CC(=O)[O-])CC1.[Gd+3] (racemic) [Gadovist, reference compound]
Concentration of cellular Gd ([1]; 1 h): 0.19 ± 0.07 μM/10^6 cells
Concentration of cellular Gd ([1]; 12 h): 0.20 ± 0.07 μM/10^6 cells
Concentration of cellular Gd ([2]; 1 h): 0.25± 0.05 μM/10^6 cells
Concentration of cellular Gd ([2]; 12 h): 0.18 ± 0.04 μM/10^6 cells
Concentration of cellular Gd ([3]; 1 h): 0.18 ± 0.06 μM/10^6 cells
Concentration of cellular Gd ([3]; 12 h): 0.13 ± 0.02 μM/10^6 cells
Concentration of cellular Gd ([4]; 1 h): 0.20 ± 0.04 μM/10^6 cells
Concentration of cellular Gd ([4]; 12 h): 0.24 ± 0.05 μM/10^6 cells
Concentration of cellular Gd ([5]; 1 h): 0.15 ± 0.05 μM/10^6 cells
Concentration of cellular Gd ([5]; 12 h): 0.16 ± 0.03 μM/10^6 cells
time that tumor contrast enhancement persisted after injection [6]: 2 h

Compound: CMYIEALDKYAC [EBP-Gd-DO3A]
Concentration of cellular Gd ([1]; 1 h): 0.31 ± 0.06 μM/10^6 cells
Concentration of cellular Gd ([1]; 12 h): 1.01 ± 0.13 μM/10^6 cells
Concentration of cellular Gd ([2]; 1 h): 0.37 ± 0.07 μM/10^6 cells
Concentration of cellular Gd ([2]; 12 h): 1.24 ± 0.19 μM/10^6 cells
Concentration of cellular Gd ([3]; 1 h): 0.43 ± 0.05 μM/10^6 cells
Concentration of cellular Gd ([3]; 12 h): 1.16 ± 0.10 μM/10^6 cells
Concentration of cellular Gd ([4]; 1 h): 0.09 ± 0.01 μM/10^6 cells
Concentration of cellular Gd ([4]; 12 h): 0.25 ± 0.07 μM/10^6 cells
Concentration of cellular Gd ([5]; 1 h): 0.35 ± 0.04 μM/10^6 cells
Concentration of cellular Gd ([5]; 12 h): 1.12 ± 0.16 μM/10^6 cells
